Measured values taken from ChEMBL document CHEMBL3879901, “Substituted isoquinolin-1(2H)-ones, and methods of use thereof” (2012).

Columns and labels:
[1] = target: Phosphatidylinositol 4,5-bisphosphate 3-kinase catalytic subunit gamma isoform (Homo sapiens, UniProt P48736); test: Inhibition of recombinant human C-terminal His6-tagged p110gamma expressed in insect cells using phosphatidylinositol as substrate in presence of gamma-32P-ATP after 5 mins by thin layer chromatographic method
[2] = Antiproliferative activity against Balb/c mouse splenic B cells preincubated for 30 mins followed by LPS or F(ab')2 donkey anti-mouse IgM and recombinant mouse IL4 stimulation measured after 72 hrs by Alamar Blue reduction assay; format: functional, cell-based
[3] = target: PI3-kinase p110-delta/p85-alpha (Homo sapiens, UniProt O00329); test: Inhibition of N-terminal His6-tagged recombinant full-length human p110delta/untagged recombinant full length p85alpha expressed in baculovirus infected Sf21 cells using phosphatidylinositol as substrate in presence of gamma-32P-ATP after 5 mins by thin layer chromatographic method
[4] = target: PI3-kinase p110-alpha/p85-alpha (Homo sapiens, UniProt P42336); test: Inhibition of N-terminal His6-tagged recombinant full-length human p110alpha/untagged recombinant full length human p85alpha expressed in baculovirus infected Sf21 cells using phosphatidylinositol as substrate in presence of gamma-32P-ATP after 5 mins by thin layer chromatographic method
PI3K p110 beta/p85 alpha = PI3K p110 beta/p85 alpha (Homo sapiens, UniProt P42338); test: Inhibition of N-terminal His6-tagged recombinant full-length human p110beta/untagged recombinant full length p85alpha expressed in baculovirus infected Sf21 cells using phosphatidylinositol as substrate in presence of gamma-32P-ATP after 5 mins by thin layer chromatographic method
Sequence of PI3K p110 beta/p85 alpha (P27986 whole entry): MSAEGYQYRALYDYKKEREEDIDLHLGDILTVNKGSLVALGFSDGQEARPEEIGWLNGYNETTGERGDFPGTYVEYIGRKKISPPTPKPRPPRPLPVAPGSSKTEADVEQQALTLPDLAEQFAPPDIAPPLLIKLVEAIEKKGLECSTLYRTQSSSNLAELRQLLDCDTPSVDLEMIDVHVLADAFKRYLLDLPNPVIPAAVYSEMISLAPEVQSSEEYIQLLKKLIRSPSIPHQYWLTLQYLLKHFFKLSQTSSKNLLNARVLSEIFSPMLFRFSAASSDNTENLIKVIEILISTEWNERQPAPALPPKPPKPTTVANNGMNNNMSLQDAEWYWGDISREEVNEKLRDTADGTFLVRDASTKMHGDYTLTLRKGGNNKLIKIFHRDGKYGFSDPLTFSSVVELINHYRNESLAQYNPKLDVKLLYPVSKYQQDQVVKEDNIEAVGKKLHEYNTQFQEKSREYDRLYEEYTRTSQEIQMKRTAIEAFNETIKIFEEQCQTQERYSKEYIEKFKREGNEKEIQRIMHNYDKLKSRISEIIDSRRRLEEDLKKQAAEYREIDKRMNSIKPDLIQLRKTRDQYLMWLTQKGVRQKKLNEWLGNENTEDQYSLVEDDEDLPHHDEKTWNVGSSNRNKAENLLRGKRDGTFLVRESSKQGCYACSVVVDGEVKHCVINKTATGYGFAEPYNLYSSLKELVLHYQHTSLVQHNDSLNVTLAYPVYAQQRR
Sequence of PI3K p110 beta/p85 alpha (P42338 whole entry): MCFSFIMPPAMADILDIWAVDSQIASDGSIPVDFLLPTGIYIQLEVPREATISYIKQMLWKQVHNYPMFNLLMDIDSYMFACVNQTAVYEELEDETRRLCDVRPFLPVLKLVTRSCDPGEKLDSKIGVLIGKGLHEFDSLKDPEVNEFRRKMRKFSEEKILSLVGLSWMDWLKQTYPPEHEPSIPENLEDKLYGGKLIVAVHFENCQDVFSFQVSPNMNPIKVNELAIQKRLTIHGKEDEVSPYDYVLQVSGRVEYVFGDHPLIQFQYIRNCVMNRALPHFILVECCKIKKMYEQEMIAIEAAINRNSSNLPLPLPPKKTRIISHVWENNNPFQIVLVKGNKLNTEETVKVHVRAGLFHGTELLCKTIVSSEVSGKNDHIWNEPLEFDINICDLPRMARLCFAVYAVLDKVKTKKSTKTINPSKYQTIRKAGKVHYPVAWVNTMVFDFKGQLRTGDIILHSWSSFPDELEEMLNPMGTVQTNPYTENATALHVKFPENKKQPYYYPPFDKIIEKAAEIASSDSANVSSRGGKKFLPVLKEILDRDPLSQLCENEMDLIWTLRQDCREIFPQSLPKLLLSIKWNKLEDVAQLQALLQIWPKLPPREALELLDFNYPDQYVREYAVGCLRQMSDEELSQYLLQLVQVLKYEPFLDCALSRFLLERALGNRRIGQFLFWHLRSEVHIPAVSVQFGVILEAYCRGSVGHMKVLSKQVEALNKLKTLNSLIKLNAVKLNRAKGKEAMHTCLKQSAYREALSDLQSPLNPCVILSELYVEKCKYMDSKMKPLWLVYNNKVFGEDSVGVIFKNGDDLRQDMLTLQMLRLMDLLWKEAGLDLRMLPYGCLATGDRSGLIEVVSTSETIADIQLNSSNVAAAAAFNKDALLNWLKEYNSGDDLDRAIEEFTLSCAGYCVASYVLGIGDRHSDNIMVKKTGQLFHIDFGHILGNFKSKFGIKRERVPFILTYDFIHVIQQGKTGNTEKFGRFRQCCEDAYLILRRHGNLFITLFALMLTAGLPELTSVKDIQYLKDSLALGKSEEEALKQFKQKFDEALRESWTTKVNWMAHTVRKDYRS

Sequence of Phosphatidylinositol 4,5-bisphosphate 3-kinase catalytic subunit gamma isoform (P48736 whole entry, canonical isoform): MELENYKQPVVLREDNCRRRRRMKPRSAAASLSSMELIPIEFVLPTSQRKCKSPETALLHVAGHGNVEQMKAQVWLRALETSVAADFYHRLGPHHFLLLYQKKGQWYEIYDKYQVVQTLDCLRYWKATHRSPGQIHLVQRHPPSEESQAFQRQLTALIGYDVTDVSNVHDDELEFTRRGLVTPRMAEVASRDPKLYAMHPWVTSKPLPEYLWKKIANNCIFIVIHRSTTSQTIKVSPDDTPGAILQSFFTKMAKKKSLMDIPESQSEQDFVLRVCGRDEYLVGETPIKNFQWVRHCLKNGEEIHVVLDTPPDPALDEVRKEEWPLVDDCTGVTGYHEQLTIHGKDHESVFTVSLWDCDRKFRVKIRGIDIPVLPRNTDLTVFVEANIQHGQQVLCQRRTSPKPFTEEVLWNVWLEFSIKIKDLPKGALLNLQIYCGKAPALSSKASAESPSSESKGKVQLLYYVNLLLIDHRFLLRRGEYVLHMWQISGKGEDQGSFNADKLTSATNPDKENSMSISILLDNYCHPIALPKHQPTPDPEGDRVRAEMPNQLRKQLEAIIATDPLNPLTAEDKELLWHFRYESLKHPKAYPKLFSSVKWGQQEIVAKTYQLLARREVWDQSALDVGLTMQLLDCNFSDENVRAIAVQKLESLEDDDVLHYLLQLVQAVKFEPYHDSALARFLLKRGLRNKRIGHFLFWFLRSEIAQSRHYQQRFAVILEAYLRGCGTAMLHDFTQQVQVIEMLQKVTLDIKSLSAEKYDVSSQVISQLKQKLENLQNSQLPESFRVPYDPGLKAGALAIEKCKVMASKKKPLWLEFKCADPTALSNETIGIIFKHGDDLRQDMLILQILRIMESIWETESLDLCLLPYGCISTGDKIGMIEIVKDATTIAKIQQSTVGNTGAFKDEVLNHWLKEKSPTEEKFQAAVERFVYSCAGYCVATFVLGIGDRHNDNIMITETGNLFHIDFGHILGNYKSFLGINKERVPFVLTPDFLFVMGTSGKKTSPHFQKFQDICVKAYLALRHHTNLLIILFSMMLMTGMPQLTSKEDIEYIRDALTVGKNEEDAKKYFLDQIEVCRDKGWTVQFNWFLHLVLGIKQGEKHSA
Sequence of PI3-kinase p110-alpha/p85-alpha (P27986 whole entry): as the sequence (P27986 whole entry) above
Sequence of PI3-kinase p110-alpha/p85-alpha (P42336 whole entry): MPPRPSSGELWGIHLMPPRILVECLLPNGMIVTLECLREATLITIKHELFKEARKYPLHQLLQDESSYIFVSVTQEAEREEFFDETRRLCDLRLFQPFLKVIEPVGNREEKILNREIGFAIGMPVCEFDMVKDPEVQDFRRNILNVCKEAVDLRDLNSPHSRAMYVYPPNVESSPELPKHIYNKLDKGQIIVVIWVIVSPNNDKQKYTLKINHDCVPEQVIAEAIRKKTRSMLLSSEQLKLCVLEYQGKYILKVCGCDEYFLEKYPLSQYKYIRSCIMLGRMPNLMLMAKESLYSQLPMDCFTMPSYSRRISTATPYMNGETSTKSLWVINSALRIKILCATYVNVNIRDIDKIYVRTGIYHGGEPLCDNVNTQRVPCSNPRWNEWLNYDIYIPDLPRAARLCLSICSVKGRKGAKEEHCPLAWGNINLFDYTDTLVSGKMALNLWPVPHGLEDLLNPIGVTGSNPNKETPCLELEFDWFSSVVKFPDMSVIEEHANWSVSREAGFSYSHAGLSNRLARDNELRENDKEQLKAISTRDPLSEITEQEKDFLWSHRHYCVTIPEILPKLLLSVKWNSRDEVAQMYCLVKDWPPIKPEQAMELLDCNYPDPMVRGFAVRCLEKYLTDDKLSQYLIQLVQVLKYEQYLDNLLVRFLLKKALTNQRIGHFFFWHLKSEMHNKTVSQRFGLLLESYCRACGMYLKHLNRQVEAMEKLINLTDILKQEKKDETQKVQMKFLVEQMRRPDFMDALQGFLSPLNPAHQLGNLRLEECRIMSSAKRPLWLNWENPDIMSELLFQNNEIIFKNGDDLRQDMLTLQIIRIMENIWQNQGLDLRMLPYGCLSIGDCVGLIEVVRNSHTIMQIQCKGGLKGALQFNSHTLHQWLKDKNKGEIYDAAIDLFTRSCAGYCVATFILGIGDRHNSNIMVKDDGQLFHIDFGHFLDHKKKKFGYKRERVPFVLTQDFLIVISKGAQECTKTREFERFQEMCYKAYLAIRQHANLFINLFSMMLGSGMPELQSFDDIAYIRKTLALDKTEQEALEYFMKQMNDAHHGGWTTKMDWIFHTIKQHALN
Sequence of PI3-kinase p110-delta/p85-alpha (P27986 whole entry): as the sequence (P27986 whole entry) above
Sequence of PI3-kinase p110-delta/p85-alpha (O00329 whole entry): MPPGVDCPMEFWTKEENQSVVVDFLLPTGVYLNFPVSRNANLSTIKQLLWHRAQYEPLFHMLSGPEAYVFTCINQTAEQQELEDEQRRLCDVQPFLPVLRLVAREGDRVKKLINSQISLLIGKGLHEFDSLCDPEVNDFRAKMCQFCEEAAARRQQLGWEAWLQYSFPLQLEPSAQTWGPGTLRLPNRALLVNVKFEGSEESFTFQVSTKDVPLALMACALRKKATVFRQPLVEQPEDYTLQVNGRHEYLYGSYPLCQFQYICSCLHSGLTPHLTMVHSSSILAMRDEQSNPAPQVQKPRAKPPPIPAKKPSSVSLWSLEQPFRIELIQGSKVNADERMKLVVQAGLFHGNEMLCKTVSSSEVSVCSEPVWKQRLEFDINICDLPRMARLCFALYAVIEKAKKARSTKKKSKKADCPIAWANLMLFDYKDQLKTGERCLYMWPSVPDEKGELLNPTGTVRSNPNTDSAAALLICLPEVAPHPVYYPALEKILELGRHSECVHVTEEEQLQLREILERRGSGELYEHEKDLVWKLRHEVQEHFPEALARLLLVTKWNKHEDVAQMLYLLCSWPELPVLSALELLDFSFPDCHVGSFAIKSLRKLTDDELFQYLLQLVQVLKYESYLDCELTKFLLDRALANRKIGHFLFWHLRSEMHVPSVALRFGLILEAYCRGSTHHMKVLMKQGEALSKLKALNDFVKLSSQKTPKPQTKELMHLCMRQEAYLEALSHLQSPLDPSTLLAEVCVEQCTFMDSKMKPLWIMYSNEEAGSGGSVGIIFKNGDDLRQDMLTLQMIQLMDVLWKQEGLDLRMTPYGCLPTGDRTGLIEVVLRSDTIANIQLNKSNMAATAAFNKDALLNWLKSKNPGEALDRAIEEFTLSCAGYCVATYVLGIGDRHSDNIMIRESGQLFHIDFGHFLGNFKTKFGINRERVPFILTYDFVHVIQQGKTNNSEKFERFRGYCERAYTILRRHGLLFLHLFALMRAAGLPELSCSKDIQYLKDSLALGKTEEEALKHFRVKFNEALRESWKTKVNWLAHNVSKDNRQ

IC50 [1]	IC50 [3]	IC50 [4]	IC50 (PI3K p110 beta/p85 alpha)	Structure (SMILES)	EC50 [2]
< 100 nM	< 100 nM			Cc1cccc2cc(Cn3nc(-c4ccc5nc(N)[nH]c5c4)c4c(N)ncnc43)n(-c3ccccc3)c(=O)c12	< 100 nM
< 100 nM				Cc1cccc2cc([C@H](C)Nc3ncnc4[nH]cnc34)n(-c3cccc(F)c3)c(=O)c12	< 100 nM
< 100 nM	< 100 nM			Cc1cccc2cc([C@H](C)Nc3nc(F)nc4[nH]cnc34)n(-c3ccccc3)c(=O)c12	< 100 nM
< 100 nM	< 100 nM			Cc1cccc2cc(Cn3nc(-c4ccc5oc(N)nc5c4)c4c(N)ncnc43)n(C3CCC3)c(=O)c12	< 100 nM
< 100 nM	< 100 nM			Cc1cccc2cc(Cn3nc(-c4ccc5oc(N)nc5c4)c4c(N)ncnc43)n(-c3ccccc3)c(=O)c12	< 100 nM
< 100 nM	< 100 nM			Cc1cccc2cc([C@H](C)Nc3nc(N)ncc3Cl)n(-c3ccccc3)c(=O)c12	< 100 nM
< 100 nM	< 100 nM			Cc1cccc2cc([C@H](C)Nc3ncnc4[nH]cnc34)n(-c3ccccc3)c(=O)c12	< 100 nM
< 100 nM	< 100 nM			Cc1ccccc1-n1c(Cn2nc(-c3ccc4sc(N)nc4c3)c3c(N)ncnc32)cc2cccc(C)c2c1=O	< 100 nM
< 100 nM	< 100 nM			CCC(Nc1ncnc2[nH]cnc12)c1cc2cccc(C)c2c(=O)n1-c1ccccc1 (configuration not stated)	< 100 nM
100 to 1000 nM				Cc1cccc2cc(Cn3nc(-c4ccc5nc(N)oc5c4)c4c(N)ncnc43)n(-c3ccccc3)c(=O)c12	< 10000 nM
< 100 nM	< 100 nM			Cc1cccnc1-n1c(Cn2nc(-c3ccc4oc(N)nc4c3)c3c(N)ncnc32)cc2cccc(C)c2c1=O	
< 100 nM	< 100 nM			Cc1cccc2cc(C(C)Nc3ncnc4[nH]cnc34)n(C3CCCC3)c(=O)c12 (configuration not stated)	< 100 nM
< 100 nM	< 100 nM			Cc1cccc2cc(C(C)Nc3ncnc4[nH]cnc34)n(-c3ccc(F)cc3)c(=O)c12 (configuration not stated)	< 100 nM
< 100 nM				Cc1cccc2cc([C@H](C)Nc3ncnc4[nH]cnc34)n(C(C)C)c(=O)c12	< 100 nM
	< 100 nM	> 10000 nM	< 10000 nM	Cc1cccc2cc(Cn3nc(-c4ccc(F)c(O)c4)c4c(N)ncnc43)n(C(C)C)c(=O)c12	< 100 nM
	< 100 nM	< 10000 nM	> 10000 nM	Cc1ccccc1-n1c(Cn2nc(-c3ccc4ncnc(N)c4c3)c3c(N)ncnc32)cc2cccc(C)c2c1=O	< 1000 nM
< 100 nM	< 100 nM			Cc1cccc2cc([C@H](C)Nc3nc(N)nc4[nH]cnc34)n(-c3ccccc3)c(=O)c12	
	< 100 nM	> 10000 nM	< 10000 nM	COc1ccccc1-n1c(Cn2nc(-c3cccc(O)c3)c3c(N)ncnc32)cc2cccc(C)c2c1=O	< 100 nM
	< 100 nM	> 10000 nM	> 10000 nM	Cc1cccc2cc(Cn3nc(C#C[C@@H](C)O)c4c(N)ncnc43)n(C3CCCCC3)c(=O)c12	< 10000 nM
	< 100 nM	> 10000 nM	< 10000 nM	Cc1cccnc1-n1c(Cn2nc(-c3ccc(Cl)c(O)c3)c3c(N)ncnc32)cc2cccc(C)c2c1=O	< 100 nM
	< 100 nM	> 10000 nM	< 10000 nM	Cc1cccc2cc(Cn3nc(-c4cccc(O)c4)c4c(N)ncnc43)n(-c3ccccc3Cl)c(=O)c12	< 100 nM
	< 1000 nM	> 10000 nM	< 10000 nM	Cc1ccccc1-n1c(Cn2nc(C#C[C@H](C)O)c3c(N)ncnc32)cc2cccc(C)c2c1=O	< 1000 nM
	< 100 nM	< 100000 nM	< 1000 nM	CC(=O)Nc1nc2ccc(-c3nn(Cc4cc5cccc(C)c5c(=O)n4C4CCC4)c4ncnc(N)c34)cc2s1	< 100 nM
< 100 nM	< 100 nM			Cc1cccc2cc([C@H](C)Nc3nc(N)ncc3C(F)(F)F)n(-c3ccccc3)c(=O)c12	
	< 100 nM	< 10000 nM	< 10000 nM	Cc1cccc2cc(Cn3nc(I)c4c(N)ncnc43)n(C3CC3)c(=O)c12	< 1000 nM
	< 100 nM	< 10000 nM	< 1000 nM	Cc1cccc2cc(Cn3nc(-c4cc(O)cc(F)c4)c4c(N)ncnc43)n(-c3ccccc3O)c(=O)c12	< 100 nM
	< 100 nM	< 1000 nM	< 1000 nM	Cc1cccc2cc(Cn3nc(-c4cccc(O)c4)c4c(N)ncnc43)n(C3CC3)c(=O)c12	< 100 nM
	< 100 nM	< 10000 nM	< 10000 nM	Cc1ccccc1-n1c(Cn2nc(-c3cc(O)cc(F)c3)c3c(N)nccc32)cc2cccc(C)c2c1=O	< 100 nM

More lines, now with the values behind:

Structure (SMILES)	IC50 [1]	IC50 [3]	IC50 [4]	IC50 (PI3K p110 beta/p85 alpha)	EC50 [2]
CC(=O)Nc1nc2ccc(-c3nn(Cc4cc5cccc(C)c5c(=O)n4-c4ccccc4C)c4ncnc(N)c34)cc2o1	< 100 nM	< 100 nM			
Cc1ccccc1-n1c(Cn2nc(-c3ccc4nc(N)oc4c3)c3c(N)ncnc32)cc2cccc(C)c2c1=O	< 100 nM	< 100 nM			< 100 nM
Cc1cccc2cc([C@H](C)Nc3ncnc4[nH]cnc34)n(C3CCC3)c(=O)c12	< 100 nM				< 100 nM
Cc1cccc2cc([C@H](C)Nc3ncnc4[nH]ccc34)n(-c3ccccc3)c(=O)c12	< 100 nM	< 100 nM			< 100 nM
Cc1cccnc1-n1c(Cn2nc(-c3cccc(O)c3)c3c(N)ncnc32)cc2ccccc2c1=O	< 10000 nM	< 1000 nM			
Cc1cccc2cc(Cn3nc(CF)c4c(N)ncnc43)n(-c3ccccc3)c(=O)c12	< 100 nM	< 100 nM			< 100 nM
Cc1cccc2cc(Cn3cnc4c(N)ncnc43)n(-c3ccccc3F)c(=O)c12	> 10000 nM	< 10000 nM			< 10000 nM
Cc1ccccc1-n1c(Cn2nc(-c3nn[nH]n3)c3c(N)ncnc32)cc2cccc(C)c2c1=O	< 100 nM	< 100 nM			< 10000 nM
Cc1ccccc1-n1c(Cn2nc(CF)c3c(N)ncnc32)cc2cccc(C)c2c1=O	< 100 nM	< 100 nM			< 100 nM
Cc1ccccc1-n1c(Cn2nc(-c3ccc4nc(N)[nH]c4c3)c3c(N)ncnc32)cc2cccc(C)c2c1=O	< 100 nM	< 100 nM			< 100 nM
CCC(Nc1ncnc2[nH]cnc12)c1cc2cccc(C)c2c(=O)n1-c1ccc(F)cc1 (configuration not stated)	< 100 nM	< 100 nM			< 100 nM
Cc1cccc2cc(Cn3nc(-c4ccc(O)c(Cl)c4)c4c(N)ncnc43)n(-c3ccccc3F)c(=O)c12		< 1000 nM	> 10000 nM	> 10000 nM	< 10000 nM
Cc1cccc2cc(Cn3nc(-c4cccc(O)c4)c4c(N)ncnc43)n(C(C)C)c(=O)c12		< 100 nM	> 10000 nM	< 1000 nM	< 100 nM
CC(=O)Nc1nc2ccc(-c3nn(Cc4cc5cccc(C)c5c(=O)n4-c4ccccc4)c4ncnc(N)c34)cc2[nH]1	< 100 nM				
Cc1cccc2cc(Cn3nc(I)c4c(N)ncnc43)n(-c3ccccc3O)c(=O)c12		< 100 nM	> 10000 nM	> 10000 nM	< 1000 nM
Cc1cccc2cc(Cn3nc(-c4ccc5sc(N)nc5c4)c4c(N)ncnc43)n(-c3ccccc3)c(=O)c12	< 100 nM	< 100 nM			< 100 nM
Cc1cccc2cc([C@H](C)Nc3ncnc4[nH]nc(Cl)c34)n(-c3ccccc3)c(=O)c12	< 100 nM	< 100 nM			
CC(=O)Nc1nc2ccc(-c3nn(Cc4cc5cccc(C)c5c(=O)n4-c4ccccc4C)c4ncnc(N)c34)cc2[nH]1	< 100 nM	< 100 nM			< 100 nM
Cc1ccccc1-n1c(Cn2nc(-c3ccc4nc(N)sc4c3)c3c(N)ncnc32)cc2cccc(C)c2c1=O		< 100 nM	< 1000 nM	< 10000 nM	< 1000 nM
Cc1ccccc1-n1c(Cn2nc(-c3ccc(O)c(Cl)c3)c3c(N)ncnc32)cc2cccc(C)c2c1=O		< 100 nM	> 10000 nM	< 10000 nM	< 1000 nM
Cc1cccc2cc([C@H](C)Nc3nc(Cl)nc4[nH]cnc34)n(-c3ccccc3)c(=O)c12	< 100 nM	< 100 nM			< 100 nM
Cc1ccccc1-n1c(Cn2nc(-c3ccc(Cl)c(O)c3)c3c(N)ncnc32)cc2cccc(C)c2c1=O		< 100 nM	> 10000 nM	< 10000 nM	< 100 nM
COc1cc(-c2nn(Cc3cc4cccc(C)c4c(=O)n3-c3ccccc3C)c3ncnc(N)c23)ccc1Cl		< 1000 nM	> 10000 nM	> 10000 nM	< 1000 nM
Cc1cccc2cc(Cn3nc(-c4cn[nH]c4)c4c(N)ncnc43)n(-c3ccccc3C(C)C)c(=O)c12		< 100 nM	< 10000 nM	< 1000 nM	< 100 nM
COc1ccccc1-n1c(Cn2nc(-c3cc(O)cc(F)c3)c3c(N)ncnc32)cc2cccc(C)c2c1=O		< 100 nM	< 10000 nM	< 10000 nM	< 100 nM
COc1ccc(-c2nn(Cc3cc4cccc(C)c4c(=O)n3-c3ccccc3C)c3ncnc(N)c23)cc1OC		< 1000 nM	> 10000 nM	> 10000 nM	< 100 nM
